The values that follow come from PMC7948503, “Optimization of a peptide ligand for the adhesion GPCR ADGRG2 provides a potent tool to explore receptor biology” (The Journal of Biological Chemistry, 2020).

By EC50 is commonly meant the midpoint of the concentration-response curve. A high value points to a less potent agent.

Non-standard residues stand in square brackets, D forms with d. Residues, ends and D or L forms follow the SMILES beside them. Primed or numbered codes have the meaning given here. No end group written: not given here. Phe(4-Me) = Cc1ccc(C[C@H](N)C(=O)O)cc1; FITC′ = not defined here

The target of experiment [1] is T1, ADGRG2-ΔGPS-β C614A (Mus musculus, UniProt Q8CJ12, C628A).
T1 construct: expressed in transfected cells; host or cells: HEK293
T1 sequence (Q8CJ12 614-1009 C628A): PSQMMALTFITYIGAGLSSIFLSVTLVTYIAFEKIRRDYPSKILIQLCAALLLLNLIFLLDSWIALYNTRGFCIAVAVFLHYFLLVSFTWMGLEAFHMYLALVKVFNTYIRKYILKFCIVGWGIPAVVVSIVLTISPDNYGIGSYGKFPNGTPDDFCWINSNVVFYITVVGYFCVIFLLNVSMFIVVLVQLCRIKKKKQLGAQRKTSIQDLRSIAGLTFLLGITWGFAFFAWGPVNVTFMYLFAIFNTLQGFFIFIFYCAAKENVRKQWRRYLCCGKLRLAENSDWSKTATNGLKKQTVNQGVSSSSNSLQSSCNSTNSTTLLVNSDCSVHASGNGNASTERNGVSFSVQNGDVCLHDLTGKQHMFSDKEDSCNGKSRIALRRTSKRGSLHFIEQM
Briefly: GloSensor cAMP assay. The class given is cell-based. The note with it: mutant C614A; HEK293, cAMP Glosensor. An excerpt:
(§1) Wildtype ADGRG2 full-length (ADGRG2-FL) was cloned from mouse total cDNA libraries using the following primers: forward, […]; reverse, […], and then ADGRG2-FL, ADGRG2 C-terminal truncation mutant (ADGRG2-β), and ADGRG2-ΔGPS-β (the entire ECD of ADGRG2 was deleted) were subcloned into the pcDNA3.1 expression vector. The ADGRG2-ΔGPS-β mutants (T610A, Y611A, C614A, S661A, W662A, I663A, L665A, Y666A，N667A, F671A, L679A, L683A, I730A, V731A, F741A, F747A, W757A, I758A, N759A, S760A, V762A, F764A, Y765A, V768A, V769A, F772A, V774A, W824A, F826A, F828A, F829A, V834A, V836A, F838A, M839A, I844A, F845A) were generated using a QuikChange Mutagenesis Kit (Stratagene). All mutations were verified by DNA sequencing.
(§2) The Glosensor cAMP assay was performed as described ([6], [39], [40]). HEK293 cells were transfected with the GloSensor plasmid and the desired expression plasmids in 24-well dishes. Twenty-four hours after transfection, the cells were plated on 96-well plates at a cell density of 20,000 cells/well. The cells were maintained in Dulbecco’s modified Eagle’s medium for another 24 h, washed with PBS, and then incubated with 100 μl of solution containing 10% fetal bovine serum, 2% (v/v) GloSensor cAMP reagent, and 88% CO2-independent medium in each well for 2 h. The cAMP signal was examined using a luminescence counter (Mithras LB 940).
For orientation: cAMP levels reflect the balance of adenylyl cyclase and phosphodiesterase activity.

Experiment [2] concerns the target T2, ADGRG2-ΔGPS-β F671A (Mus musculus, UniProt Q8CJ12, F685A).
T2 construct: expressed in transfected cells; host or cells: HEK293
Briefly: GloSensor cAMP assay. The note with it: mutant F671A; HEK293, cAMP Glosensor. The class given is cell-based.
Description: as §1, §2

Experiment [3] has as its target T3, ADGRG2-ΔGPS-β F747A (Mus musculus, UniProt Q8CJ12, F761A).
T3 construct: expressed in transfected cells; host or cells: HEK293
Briefly: GloSensor cAMP assay. The class given is cell-based. The note with it: mutant F747A; HEK293, cAMP Glosensor.
Description: as §1, §2

Experiment [4] has as its target T4, ADGRG2-ΔGPS-β F829A (Mus musculus, UniProt Q8CJ12, F843A).
T4 construct: expressed in transfected cells; host or cells: HEK293
Briefly: GloSensor cAMP assay. The note with it: mutant F829A; HEK293, cAMP Glosensor. The format is cell-based.
Description: as §1, §2

The target in experiment [5] is T5, ADGRG2-ΔGPS-β I758A (Mus musculus, UniProt Q8CJ12, I772A).
T5 construct: expressed in transfected cells; host or cells: HEK293
T5 sequence (Q8CJ12 614-1009 I772A): as the sequence (Q8CJ12 614-1009 C628A) above, with A15C, I159A counted along it
Briefly: GloSensor cAMP assay. The format is cell-based. To be noted: mutant I758A; HEK293, cAMP Glosensor.
Description: as §1, §2

Experiment [6] concerns the target T6, ADGRG2-ΔGPS-β L665A (Mus musculus, UniProt Q8CJ12, L679A).
T6 construct: expressed in transfected cells; host or cells: HEK293
Briefly: GloSensor cAMP assay. The note with it: mutant L665A; HEK293, cAMP Glosensor. The class given is cell-based.
Description: as §1, §2

For experiment [7], the target named is T7, ADGRG2-ΔGPS-β L679A (Mus musculus, UniProt Q8CJ12, L693A).
T7 construct: expressed in transfected cells; host or cells: HEK293
T7 sequence (Q8CJ12 614-1009 L693A): as the sequence (Q8CJ12 614-1009 C628A) above, with A15C, L80A counted along it
Briefly: GloSensor cAMP assay. The note with it: mutant L679A; HEK293, cAMP Glosensor. The format is cell-based.
Description: as §1, §2

Experiment [8] concerns the target T8, ADGRG2-ΔGPS-β M839A (Mus musculus, UniProt Q8CJ12, M853A).
T8 construct: expressed in transfected cells; host or cells: HEK293
The experiment can be described thus: GloSensor cAMP assay. The class given is cell-based. To be noted: mutant M839A; HEK293, cAMP Glosensor.
Description: as §1, §2

Experiment [9] deals with T9, ADGRG2-ΔGPS-β N667A (Mus musculus, UniProt Q8CJ12, N681A).
T9 construct: expressed in transfected cells; host or cells: HEK293
T9 sequence (Q8CJ12 614-1009 N681A): as the sequence (Q8CJ12 614-1009 C628A) above, with A15C, N68A counted along it
Briefly: GloSensor cAMP assay. The format is cell-based. To be noted: mutant N667A; HEK293, cAMP Glosensor.
Description: as §1, §2

In experiment [10] the target is T10, ADGRG2-ΔGPS-β S760A (Mus musculus, UniProt Q8CJ12, S774A).
T10 construct: expressed in transfected cells; host or cells: HEK293
T10 sequence (Q8CJ12 614-1009 S774A): as the sequence (Q8CJ12 614-1009 C628A) above, with A15C, S161A counted along it
Briefly: GloSensor cAMP assay. To be noted: mutant S760A; HEK293, cAMP Glosensor. The format is cell-based.
Description: as §1, §2

In experiment [11] the target is T11, ADGRG2-ΔGPS-β V731A (Mus musculus, UniProt Q8CJ12, V745A).
T11 construct: expressed in transfected cells; host or cells: HEK293
T11 sequence (Q8CJ12 614-1009 V745A): as the sequence (Q8CJ12 614-1009 C628A) above, with A15C, V132A counted along it
The experiment can be described thus: GloSensor cAMP assay. The format is cell-based. To be noted: mutant V731A; HEK293, cAMP Glosensor.
Description: as §1, §2

The target in experiment [12] is T12, ADGRG2-ΔGPS-β V769A (Mus musculus, UniProt Q8CJ12, V783A).
T12 construct: expressed in transfected cells; host or cells: HEK293
T12 sequence (Q8CJ12 614-1009 V783A): as the sequence (Q8CJ12 614-1009 C628A) above, with A15C, V170A counted along it
Briefly: GloSensor cAMP assay. The format is cell-based. To be noted: mutant V769A; HEK293, cAMP Glosensor.
Description: as §1, §2

Experiment [13] deals with T13, ADGRG2-ΔGPS-β V834A (Mus musculus, UniProt Q8CJ12, V848A).
T13 construct: expressed in transfected cells; host or cells: HEK293
T13 sequence (Q8CJ12 614-1009 V848A): as the sequence (Q8CJ12 614-1009 C628A) above, with A15C, V235A counted along it
Briefly: GloSensor cAMP assay. To be noted: mutant V834A; HEK293, cAMP Glosensor. The class given is cell-based.
Description: as §1, §2

Experiment [14] has as its target T14, ADGRG2-ΔGPS-β V836A (Mus musculus, UniProt Q8CJ12, V850A).
T14 construct: expressed in transfected cells; host or cells: HEK293
The experiment can be described thus: GloSensor cAMP assay. The class given is cell-based. To be noted: mutant V836A; HEK293, cAMP Glosensor.
Description: as §1, §2

In experiment [15] the target is T15, ADGRG2-ΔGPS-β W662A (Mus musculus, UniProt Q8CJ12, W676A).
T15 construct: expressed in transfected cells; host or cells: HEK293
T15 sequence (Q8CJ12 614-1009 W676A): as the sequence (Q8CJ12 614-1009 C628A) above, with A15C, W63A counted along it
Briefly: GloSensor cAMP assay. The class given is cell-based. To be noted: mutant W662A; HEK293, cAMP Glosensor.
Description: as §1, §2

The target in experiment [16] is T16, ADGRG2-ΔGPS-β W824A (Mus musculus, UniProt Q8CJ12, W838A).
T16 construct: expressed in transfected cells; host or cells: HEK293
T16 sequence (Q8CJ12 614-1009 W838A): as the sequence (Q8CJ12 614-1009 C628A) above, with A15C, W225A counted along it
Briefly: GloSensor cAMP assay. The class given is cell-based. The note with it: mutant W824A; HEK293, cAMP Glosensor.
Description: as §1, §2

Experiment [17] concerns the target T17, ADGRG2-ΔGPS-β Y765A (Mus musculus, UniProt Q8CJ12, Y779A).
T17 construct: expressed in transfected cells; host or cells: HEK293
The experiment can be described thus: GloSensor cAMP assay. The class given is cell-based. The note with it: mutant Y765A; HEK293, cAMP Glosensor.
Description: as §1, §2

The target of experiment [18] is T18, Rluc-ADGRG2-ΔGPS-β C614A (mouse, UniProt Q8CJ12-3 38-995, C614A).
T18 construct: ADGRG2 (GPR64), mouse, ADGRG2-ΔGPS-β: the entire ECD removed; source: HEK293, transfected, on cells; not shown: Rluc, N-terminal, kept
T18 sequence (Q8CJ12 other isoform, or with tags, fused parts or gaps C614A | C614A | C614A C614A): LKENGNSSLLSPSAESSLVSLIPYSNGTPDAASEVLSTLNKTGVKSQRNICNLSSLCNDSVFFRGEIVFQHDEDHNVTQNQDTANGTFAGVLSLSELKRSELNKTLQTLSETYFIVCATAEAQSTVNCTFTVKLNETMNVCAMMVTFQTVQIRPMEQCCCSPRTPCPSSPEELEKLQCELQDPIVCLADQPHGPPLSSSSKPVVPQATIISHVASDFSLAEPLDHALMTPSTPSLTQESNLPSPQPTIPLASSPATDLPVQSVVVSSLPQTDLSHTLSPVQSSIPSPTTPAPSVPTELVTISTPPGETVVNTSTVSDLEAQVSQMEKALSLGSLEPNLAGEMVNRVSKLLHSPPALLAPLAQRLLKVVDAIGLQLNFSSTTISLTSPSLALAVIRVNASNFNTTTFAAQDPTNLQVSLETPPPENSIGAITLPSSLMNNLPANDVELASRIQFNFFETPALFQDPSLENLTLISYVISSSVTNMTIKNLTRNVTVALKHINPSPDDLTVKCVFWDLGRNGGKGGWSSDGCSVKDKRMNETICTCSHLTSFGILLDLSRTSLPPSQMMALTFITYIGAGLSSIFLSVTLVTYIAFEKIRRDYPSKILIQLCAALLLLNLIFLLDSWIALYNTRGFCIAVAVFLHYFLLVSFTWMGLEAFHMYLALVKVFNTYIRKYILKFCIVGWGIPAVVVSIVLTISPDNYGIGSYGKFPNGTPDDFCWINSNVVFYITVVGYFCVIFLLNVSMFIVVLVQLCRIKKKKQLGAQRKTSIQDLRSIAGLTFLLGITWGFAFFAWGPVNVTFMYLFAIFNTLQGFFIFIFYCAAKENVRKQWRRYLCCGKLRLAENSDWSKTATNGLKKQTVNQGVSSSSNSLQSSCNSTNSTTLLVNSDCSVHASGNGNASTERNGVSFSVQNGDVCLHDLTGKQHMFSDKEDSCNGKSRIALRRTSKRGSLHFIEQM
Briefly: FRET or BRET; HEK293 cells transfected with Rluc-ADGRG2-ΔGPS-β WT or mutants, stimulated by increasing concentrations of FITC-conjugated VPM-p15; saturation curves fitted with GraphPad; each experiment repeated 6 times. The note with it: one partner purified. In general terms: In BRET a luciferase serves as donor, and the signal depends on an acceptor being close.

T14 sequence (Q8CJ12 614-1009 V850A): as the sequence (Q8CJ12 614-1009 C628A) above, with A15C, V237A counted along it
T6 sequence (Q8CJ12 614-1009 L679A): as the sequence (Q8CJ12 614-1009 C628A) above, with A15C, L66A counted along it
T8 sequence (Q8CJ12 614-1009 M853A): as the sequence (Q8CJ12 614-1009 C628A) above, with A15C, M240A counted along it
T4 sequence (Q8CJ12 614-1009 F843A): as the sequence (Q8CJ12 614-1009 C628A) above, with A15C, F230A counted along it
T3 sequence (Q8CJ12 614-1009 F761A): as the sequence (Q8CJ12 614-1009 C628A) above, with A15C, F148A counted along it
T2 sequence (Q8CJ12 614-1009 F685A): as the sequence (Q8CJ12 614-1009 C628A) above, with A15C, F72A counted along it

Turning to `CC[C@H](C)[C@H](NC(=O)CNC(=O)[C@H](Cc1ccc(C)cc1)NC(=O)[C@H](CO)NC(=O)[C@@H](N)C(C)C)C(=O)N[C@@H](CC(C)C)C(=O)N[C@@H](CC(C)C)C(=O)N[C@@H](CC(=O)O)C(=O)N[C@@H](CC(C)C)C(=O)N[C@@H](CO)C(=O)N[C@@H](CCCNC(=N)N)C(=O)N[C@H](C(=O)N[C@@H](CO)C(=O)N[C@@H](CC(C)C)C(=O)N1CCC[C@H]1C(=O)O)[C@@H](C)O` [VPM-p15] (H-VS[Phe(4-Me)]GILLDLSRTSLP-OH), the half-maximal effective concentration (EC50) in experiment [1] is 2170 nM; in [2], 1200 nM; in [3] it was 1130 nM; in [4], 1160 nM; in experiment [5], 13800 nM; in experiment [6], 1590 nM. For the same molecule, the concentration giving a half-maximal response (EC50) in experiment [7] amounted to 1160 nM; in experiment [8] it was 1720 nM; in [9] it was 1240 nM; in experiment [10], 1950 nM; in [11], 1220 nM; in experiment [12], 1690 nM. Besides, the EC50 in experiment [13] was found to be 1140 nM; in [14], 4130 nM; in [15], 1550 nM; in experiment [16], 9750 nM; in experiment [17] it was 1070 nM.

B1: FITC-conjugated VPM-p15 (ADGRG2 Stachel peptide p15 T1V/F3Phe(4-Me)) (peptide)
chain: VS[Phe(4-Me)]GILLDLSRTSLP-{FITC′}
Turning to B1, the response in experiment [18] was half-maximal at 1290 nM (EC50).
